Tested on: HEC-1A cells
Experiment: Cytokine/chemokine MultiPlex assay (BioPlex 200) of HEC-1A secretion
Type: cell-based
Settings: 24 hours
Text: In the model as provided in this example, a method to assess the pro-inflammatory character of antivirals intended to be applied as mucosal topicals was used.
Epithelial cells are capable of secreting a set of molecules called cytokines and chemokines, which are responsible for the recruitment and activation of immune cells at the site of secretion. This process can be deleterious in the context of sexual transmission of HIV-1 because the recruited cells are the preferred targets of the virus. […] A microbicide candidate should therefore not promote inflammation by activating the production of this type of molecule by the cells directly in contact with the substance (epithelial cells). These secretions can be deleterious in the context of sexual transmission of HIV-1 or HPV and other papillomaviruses because the recruited cells are the preferred targets of the virus. A microbicide candidate must thus not promote inflammation by activating the production of these types of molecules by the cells in contact with the substance (epithelial cells).
After 24 hours of incubation, a panel of 48 inflammation-related cytokines/chemokines is assayed by MultiPlex (BioPlex 200 BioRad) in the basal medium.

## zinc tetra-ascorbo-camphorate [C14]
10 μM
  IL-12ρ40: 0 pg/mL
  IL-13: 4.145 pg/mL
  IL-15: 0 pg/mL
  IL-16: 0 pg/mL
  IL-17: 0 pg/mL
  IL-18: 0 pg/mL
  IP-10: 7.165 pg/mL
  LIF: 0 pg/mL
  M-CSF: 4.805 pg/mL
  MCP-1: 7.55 pg/mL
  MCP-3: 0 pg/mL
  MIF: 1.06 pg/mL
  MIG: 3.76 pg/mL
  MIP-1α: 2.065 pg/mL
  MIP-1β: 1.555 pg/mL
  PDGF-β: 2.805 pg/mL
  RANTES: 12.995 pg/mL
  SCF: 0 pg/mL
  SCGF-β: 255.82 pg/mL
  SDF-1α: 11.41 pg/mL
  TNF-α: 6.985 pg/mL
  TNF-β: 0 pg/mL
  TRAIL: 5.025 pg/mL
  VEGF: 1530.905 pg/mL
  β-NGF: 0.86 pg/mL
100 μM
  CTACK: 2.585 pg/mL
  Eotaxin: 0 pg/mL
  FGF: 1.635 pg/mL
  G-CSF: 1.885 pg/mL
  GM-CSF: 9.51 pg/mL
  GROα: 0 pg/mL
  HGF: 4.58 pg/mL
  IFN-α2: 4.08 pg/mL
  IFN-γ: 89.85 pg/mL
  IL-1rα: 10.3 pg/mL
  IL-1α: 0 pg/mL
  IL-1β: 0.34 pg/mL
  IL-2: 0.02 pg/mL
  IL-2rα: 3.245 pg/mL
  IL-3: 5.495 pg/mL
  IL-4: 0.33 pg/mL
  IL-5: 0 pg/mL
  IL-6: 0.255 pg/mL
  IL-7: 4.495 pg/mL
  IL-8: 783.255 pg/mL
  IL-9: 22.305 pg/mL
  IL-10: 3.505 pg/mL
  IL-12: 99.355 pg/mL
  IL-12ρ40: 0 pg/mL
  IL-13: 3.735 pg/mL
  IL-15: 0 pg/mL
  IL-16: 0 pg/mL
  IL-17: 0 pg/mL
  IL-18: 0 pg/mL
  IP-10: 0 pg/mL
  LIF: 0 pg/mL
  M-CSF: 4.725 pg/mL
  MCP-1: 5.3 pg/mL
  MCP-3: 0 pg/mL
  MIF: 1.06 pg/mL
  MIG: 2.75 pg/mL
  MIP-1α: 1.77 pg/mL
  MIP-1β: 1.26 pg/mL
  PDGF-β: 3.58 pg/mL
  RANTES: 12.205 pg/mL
  SCF: 0 pg/mL
  SCGF-β: 228.825 pg/mL
  SDF-1α: 11.41 pg/mL
  TNF-α: 5.465 pg/mL
  TNF-β: 0 pg/mL
  TRAIL: 5.025 pg/mL
  VEGF: 1469.495 pg/mL
  β-NGF: 0.95 pg/mL
500 μM
  CTACK: 3.425 pg/mL
  Eotaxin: 3.21 pg/mL
  FGF: 1.925 pg/mL
  G-CSF: 2.3 pg/mL
  GM-CSF: 7.53 pg/mL
  GROα: 2.75 pg/mL
  HGF: 6.22 pg/mL
  IFN-α2: 3.58 pg/mL
  IFN-γ: 98.775 pg/mL
  IL-1rα: 14.09 pg/mL
  IL-1α: 0 pg/mL
  IL-1β: 0.415 pg/mL
  IL-2: 0.28 pg/mL
  IL-2rα: 4.39 pg/mL
  IL-3: 6.785 pg/mL
  IL-4: 0.295 pg/mL
  IL-5: 0 pg/mL
  IL-6: 0.79 pg/mL
  IL-7: 4.66 pg/mL
  IL-8: 1219.13 pg/mL
  IL-9: 30.4 pg/mL
  IL-10: 4.165 pg/mL
  IL-12: 121.285 pg/mL
  IL-12ρ40: 0 pg/mL
  IL-13: 4.555 pg/mL
  IL-15: 0 pg/mL
  IL-16: 0 pg/mL
  IL-17: 0 pg/mL
  IL-18: 0 pg/mL
  IP-10: 10.765 pg/mL
  LIF: 0 pg/mL
  M-CSF: 3.995 pg/mL
  MCP-1: 5.165 pg/mL
  MCP-3: 0 pg/mL
  MIF: 5.26 pg/mL
  MIG: 3.09 pg/mL
  MIP-1α: 2.04 pg/mL
  MIP-1β: 1.655 pg/mL
  PDGF-β: 6.19 pg/mL
  RANTES: 13.835 pg/mL
  SCF: 0 pg/mL
  SCGF-β: 128.865 pg/mL
  SDF-1α: 11.41 pg/mL
  TNF-α: 10.49 pg/mL
  TNF-β: 0 pg/mL
  TRAIL: 3.43 pg/mL
  VEGF: 1814.38 pg/mL
  β-NGF: 0.995 pg/mL
